Data as given in patent US8741875B2, “Compounds as receptor modulators with therapeutic utility” (Allergan, Inc., priority 2009, dated 2014).

Target: T1, human S1P1 receptor (Homo sapiens, UniProt P21453)
T1 construct: expressed in transfected cells; membranes used
Experiment: GTP γ35S binding assay for S1P1 activity
Assay type: biochemical
Details: membranes, 30 min at 25° C., read-out: S1P1 EC50 (Activity potency: S1P1 receptor from GTP γ35S)
Protocol: Compounds were tested for S1P1 activity using the GTP γ^35S binding assay. These compounds may be assessed for their ability to activate or block activation of the human S1P1 receptor in cells stably expressing the S1P1 receptor.
GTP γ^35S binding was measured in the medium containing (mM) HEPES 25, pH 7.4, MgCl2 10, NaCl 100, dithitothreitol 0.5, digitonin 0.003%, 0.2 nM GTP γ^35S, and 5 μg membrane protein in a volume of 150 μl. Test compounds were included in the concentration range from 0.08 to 5,000 nM unless indicated otherwise. Membranes were incubated with 100 μM 5′-adenylylimmidodiphosphate for 30 min, and subsequently with 10 μM GDP for 10 min on ice. Drug solutions and membrane were mixed, and then reactions were initiated by adding GTP γ^35S and continued for 30 min at 25° C. Reaction mixtures were filtered over Whatman GF/B filters under vacuum, and washed three times with 3 mL of ice-cold buffer (HEPES 25, pH7.4, MgCl2 10 and NaCl 100). Filters were dried and mixed with scintillant, and counted for ^35S activity using a β-counter. Agonist-induced GTP γ^35S binding was obtained by subtracting that in the absence of agonist. Binding data were analyzed using a non-linear regression method. In case of antagonist assay, the reaction mixture contained 10 nM S1P in the presence of test antagonist at concentrations ranging from 0.08 to 5000 nM.

T1 sequence (P21453 whole entry): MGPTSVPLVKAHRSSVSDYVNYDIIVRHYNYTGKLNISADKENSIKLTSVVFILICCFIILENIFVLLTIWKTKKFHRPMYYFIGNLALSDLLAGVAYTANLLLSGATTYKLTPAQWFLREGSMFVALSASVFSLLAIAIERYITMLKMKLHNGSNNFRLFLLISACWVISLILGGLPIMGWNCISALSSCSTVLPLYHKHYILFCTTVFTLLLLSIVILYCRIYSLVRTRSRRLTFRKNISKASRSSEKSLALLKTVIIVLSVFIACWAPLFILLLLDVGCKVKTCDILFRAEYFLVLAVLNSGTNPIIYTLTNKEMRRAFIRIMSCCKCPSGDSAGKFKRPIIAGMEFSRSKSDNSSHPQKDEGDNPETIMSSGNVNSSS

| SMILES | EC50 [nM] |
| --- | --- |
| O=P(O)(O)CCCNCc1ccc(OCCCCc2ccc(F)cc2)c(-c2ccco2)c1 [Compound 26, [3-({4-[4-(4-fluorophenyl)butoxy]-3-(2-furyl)benzyl}amino)propyl]phosphonic acid] | 98.9 |
| COc1ccc(CCCCCOc2ccc(CNCCCP(=O)(O)O)cc2-c2cccs2)cc1 [Compound 20, (3-{[4-{[5-(4-methoxyphenyl)pentyl]oxy}-3-(2-thienyl)benzyl]amino}propyl)phosphonic acid] | 48.6 |
| O=P(O)(O)CCCNCc1ccc(OCCCCCc2ccccc2)c(-c2ccc(F)o2)c1 [Compound 38, [3-({3-(5-fluoro-2-furyl)-4-[(5-phenylpentyl)oxy]benzyl}amino)propyl]phosphonic acid] | 1.9 |
| O=P(O)(O)CCCNCc1ccc(OCCCCCc2ccccc2)c(-c2cccs2)n1 [Compound 15, {3-[({5-[(5-phenylpentyl)oxy]-6-(2-thienyl)pyridin-2-yl}methyl)amino]propyl}phosphonic acid] | 0.77 |
| O=[PH](O)CCCNCc1ccc(OCCCCCc2ccccc2)c(-c2cccs2)c1 [Compound 37, [3-({4-[(5-phenylpentyl)oxy]-3-(2-thienyl)benzyl}amino)propyl]phosphinic acid] | 52.6 |
| COc1cccc(CCCCCOc2ccc(CNCCCP(=O)(O)O)cc2-c2ccco2)c1 [Compound 23, (3-{[3-(2-furyl)-4-{[5-(3-methoxyphenyl)pentyl]oxy}benzyl]amino}propyl)phosphonic acid] | 240 |
| COc1ccc(CCCCCOc2ccc(CNCCCP(=O)(O)O)cc2-c2cccs2)cc1Cl [Compound 32, (3-{[4-{[5-(3-chloro-4-methoxyphenyl)pentyl]oxy}-3-(2-thienyl)benzyl]amino}propyl)phosphonic acid] | 6.5 |
| COc1ccc(CCCCCOc2ccc(CNCCCP(=O)(O)O)cc2-c2cccs2)cc1F [Compound 28, (3-{[4-{[5-(3-fluoro-4-methoxyphenyl)pentyl]oxy}-3-(2-thienyl)benzyl]amino}propyl)phosphonic acid] | 1.9 |
| CC(NCCCP(=O)(O)O)c1ccc(OCCCCCc2ccccc2)c(-c2cccs2)c1 (centres unmarked) [Compound 42, {3-[(1-{4-[(5-phenylpentyl)oxy]-3-(2-thienyl)phenyl}ethyl)amino]propyl}phosphonic acid] | 16.4 |
| CC(CO)NCc1ccc(OCCCCCc2ccccc2)c(-c2cccs2)c1 (centres unmarked) [Compound 12, 2-({4-[(5-phenylpentyl)oxy]-3-(2-thienyl)benzyl}amino)propan-1-ol] | 241 |
| O=P(O)(O)CCCNCc1ccc(OCCCCCc2ccccc2)c(-c2ccoc2)n1 [Compound 14, {3-[({6-(3-furyl)-5-[(5-phenylpentyl)oxy]pyridin-2-yl}methyl)amino]propyl}phosphonic acid] | 1 |
| O=P(O)(O)CCCNCc1ccc(OCCCCCc2ccccc2)c(-c2ccsc2)c1 [Compound 5, [3-({4-[(5-phenylpentyl)oxy]-3-(3-thienyl)benzyl}amino)propyl]phosphonic acid] | 3.3 |
| CC(CCNCc1ccc(OCCCCCc2ccccc2)c(-c2ccco2)c1)P(=O)(O)O (centres unmarked) [Compound 36, [3-({3-(2-furyl)-4-[(5-phenylpentyl)oxy]benzyl}amino)-1-methylpropyl]phosphonic acid] | 18.5 |
| O=P(O)(O)CCCNCc1ccc(OCCCCCc2ccccc2)c(-c2cocn2)c1 [Compound 35, [3-({3-(1,3-oxazol-4-yl)-4-[(5-phenylpentyl)oxy]benzyl}amino)propyl]phosphonic acid] | 54.1 |
| O=P(O)(O)CCCNCc1ccc(OCCCCCc2ccccc2)c(-n2cccn2)c1 [Compound 43, [3-({4-[(5-phenylpentyl)oxy]-3-(1H-pyrazol-1-yl)benzyl}amino)propyl]phosphonic acid] | 8.5 |
| CCCCCCCCCCOc1ccc(CNCCCP(=O)(O)O)cc1-c1cccs1 [Compound 17, (3-{[4-(decyloxy)-3-(2-thienyl)benzyl]amino}propyl)phosphonic acid] | 294 |
| COc1cccc(CCCCCOc2ccc(CNCCCP(=O)(O)O)cc2-c2ccoc2)c1 [Compound 34, (3-{[3-(3-furyl)-4-{[5-(3-methoxyphenyl)pentyl]oxy}benzyl]amino}propyl)phosphonic acid] | 12.5 |
| O=P(O)(O)CCCNCc1ccc(OCCCCCc2ccccc2)c(C2=CCCC2)c1 [Compound 8, [3-({3-cyclopent-1-en-1-yl-4-[(5-phenylpentyl)oxy]benzyl}amino)propyl]phosphonic acid] | 3.4 |
| Cc1cccc(CCCCCOc2ccc(CNCCCP(=O)(O)O)cc2-c2ccco2)c1 [Compound 40, (3-{[3-(2-furyl)-4-{[5-(3-methylphenyl)pentyl]oxy}benzyl]amino}propyl)phosphonic acid] | 34.9 |

| SMILES | EC50 [nM] |
| --- | --- |
| O=P(O)(O)CCCNCc1ccc(OCCCCCc2cccc(C(F)(F)F)c2)c(-c2ccco2)c1 [Compound 22, (3-{[3-(2-furyl)-4-({5-[3-(trifluoromethyl)phenyl]pentyl}oxy)benzyl]amino}propyl)phosphonic acid] | 65.7 |
| O=P(O)(O)CCCNCc1ccc(OCCCCCc2ccccc2)c(-c2ncco2)c1 [Compound 2, [3-({3-(1,3-oxazol-2-yl)-4-[(5-phenylpentyl)oxy]benzyl}amino)propyl]phosphonic acid] | 11.9 |
| [2H]C([2H])(CCCCc1ccccc1)Oc1ccc(CNCCCP(=O)(O)O)cc1-c1ccco1 [Compound 45, [3-({3-(2-furyl)-4-[(5-phenylpentyl)oxy]benzyl}amino)propyl]phosphonic acid-d_2—] | 1.7 |
| O=P(O)(O)CCCNCc1ccc(OCCCCCc2ccc(Cl)cc2)c(-c2ccco2)c1 [Compound 29, (3-{[4-{[5-(4-chlorophenyl)pentyl]oxy}-3-(2-furyl)benzyl]amino}propyl)phosphonic acid] | 5.7 |
| O=P(O)(O)CCCNCc1ccc(OCCCCCc2ccccc2)c(-c2ccco2)c1 [Compound 1, [3-({3-(2-furyl)-4-[(5-phenylpentyl)oxy]benzyl}amino)propyl]phosphonic acid] | 0.9 |
| COc1cccc(CCCCCOc2ccc(CNCCCP(=O)(O)O)cc2-c2cccs2)c1 [Compound 19, (3-{[4-{[5-(3-methoxyphenyl)pentyl]oxy}-3-(2-thienyl)benzyl]amino}propyl)phosphonic acid] | 1120 |
| O=P(O)(O)CCCNCc1ccc(OCCCCCc2ccccc2)c(-n2cccc2)c1 [Compound 44, [3-({4-[(5-phenylpentyl)oxy]-3-(1H-pyrrol-1-yl)benzyl}amino)propyl]phosphonic acid] | 3.4 |
| OCC(CO)NCc1ccc(OCCCCCc2ccccc2)c(-c2cccs2)c1 [Compound 13, 2-({4-[(5-phenylpentyl)oxy]-3-(2-thienyl)benzyl}amino)propane-1,3-diol] | 714 |
| O=P(O)(O)CCCNCc1ccc(OCCCCCc2ccccc2)c(-c2ccc(F)s2)c1 [Compound 18] | 2 |
| O=P(O)(O)CCCNCc1ccc(OCCCCCc2ccc(F)cc2)c(-c2ccco2)c1 [Compound 24, (3-{[4-{[5-(4-fluorophenyl)pentyl]oxy}-3-(2-furyl)benzyl]amino}propyl)phosphonic acid] | 0.98 |
| O=P(O)(O)CCCNCc1ccc(NCCCCCc2ccccc2)c(-c2ncco2)c1 [Compound 47, [3-({3-(1,3-oxazol-2-yl)-4-[(5-phenylpentyl)amino]benzyl}amino)propyl]phosphonic acid] | 15.6 |
| O=P(O)(O)CCCNCc1ccc(OCCCCCc2ccc(F)cc2)c(-c2cccs2)c1 [Compound 21, (3-{[4-{[5-(4-fluorophenyl)pentyl]oxy}-3-(2-thienyl)benzyl]amino}propyl)phosphonic acid] | 19.7 |
| O=P(O)(O)CCCNCc1ccc(OCCCCc2ccc(F)cc2)c(-c2cccs2)c1 [Compound 25, [3-({4-[4-(4-fluorophenyl)butoxy]-3-(2-thienyl)benzyl}amino)propyl]phosphonic acid] | 67.5 |
| CCCCCCCCCOc1ccc(CNCCCP(=O)(O)O)cc1-c1cccs1 [Compound 16, (3-{[4-(nonyloxy)-3-(2-thienyl)benzyl]amino}propyl)phosphonic acid] | 517 |
| COc1ccc(CCCCCOc2ccc(CNCCCP(=O)(O)O)cc2-c2ccco2)cc1F [Compound 27, (3-{[4-{[5-(3-fluoro-4-methoxyphenyl)pentyl]oxy}-3-(2-furyl)benzyl]amino}propyl)phosphonic acid] | 7 |
| O=P(O)(O)CCCNCc1ccc(OCCCCCc2ccccc2)c(-c2ccoc2)c1 [Compound 4, [3-({3-(3-furyl)-4-[(5-phenylpentyl)oxy]benzyl}amino)propyl]phosphonic acid] | 0.6 |
| O=P(O)(O)CCCNCc1cc(-c2ccco2)c(OCCCCCc2ccccc2)cc1F [Compound 51, [3-({2-fluoro-5-(2-furyl)-4-[(5-phenylpentyl)oxy]benzyl}amino)propyl]phosphonic acid] | 1 |
| O=P(O)(O)CCCNCc1ccc(OCCCCCc2ccccc2F)c(-c2ccco2)c1 [Compound 49, (3-{[4-{[5-(2-fluorophenyl)pentyl]oxy}-3-(2-furyl)benzyl]amino}propyl)phosphonic acid] | 1 |
| O=P(O)(O)CCCNCc1ccc(NCCCCCc2ccccc2)c(-c2nccs2)c1 [Compound 48, [3-({4-[(5-phenylpentyl)amino]-3-(1,3-thiazol-2-yl)benzyl}amino)propyl]phosphonic acid] | 17.4 |
